Earlier results, collected in patent publication US5807979A, “Synthetic, three-dimensionally stabilized polypeptide mimics of HIV” (The Scripps Research Institute, priority 1995, dated 1998).

Tests used:
[1] = tested on: malaria; details: tested in humans; cited from earlier work
[2] = fraction of the activity of parent EGF; cited from earlier work

## (Asn-Ala-Asn-Pro)3
[1]
  effectiveness of vaccine in humans: only partially effective

## active fragment of epidermal growth factor (EGF), comprising amino acids 20-31: active fragment of epidermal growth factor (EGF), comprising amino acids 20-31 (CMYIEALDKYAC; Epidermal growth factor; UniProt P01133 990-1001, looked up, fragment)
[2]
  activity relative to that of the parent molecule: about 10^-4
